In patent publication US20240376113A1 (Volastra Therapeutics, Inc., priority 2020, published 2024):
Like-named read-outs stand apart in the source and are kept apart here.

Columns and labels:
[1] = target: ENPP1 on MDA-MB-231 cells (Homo sapiens (Human), UniProt P22413); assay: Inhibition of ENPP1 hydrolysis of AMP p-nitrophenyl ester on MDA-MB-231 cells (Assay 2); type: cell-based
Protocol: Inhibition of ENPP1 Hydrolysis of AMP p-Nitrophenyl Ester on MDA-MB-231 Cells (Assay 2)
ENPP1 is normally expressed on the human metastatic breast cancer cell line MDA-MB-231. Hydrolysis of the p-nitrophenyl ester of AMP (pNP-AMP), an isostere of ATP, is selectively catalyzed by ENPP1 in the supernatant of MDA-MB-231 cell cultures. Inhibition of the hydrolysis of pNP-AMP by MDA-MB-231 at pH 7.4 and 37° C. is a good model of physiologically relevant activity of membrane-bound ENPP1 at disease-relevant expression levels.
MDA-MB-231 cells were harvested using TypLE Express Enzyme digestion and suspended in 100 μL of Leibovitz's L-15 Medium, 20% FBS, seeding the cells in a 96-well assay plate with 4.5×10^4 cells/well. Cells were incubated at 37 C with 1% CO2 for 24 h. In a separate dilution plate, 2× of top dose of compound was prepared in phenol-red free 1640 medium without FBS and then 1:3 serial diluted in the same medium. The cell culture medium of L15 medium was aspirated carefully and cells were washed with PBS once, and 50 μL per well of test compound or DMSO blank are added to the assay plate. Substrate mix (50 μL; 0.5 mM pNP-AMP in phenol-red free 1640 media without FBS) was added for a pNP-AMP final concentration of 0.25 mM. The system was incubated at 37° C. for 3 h.

ENPP-1 ECD = ENPP-1 ECD (Homo sapiens (Human), UniProt P22413); assay: Inhibition of ENPP1 hydrolysis of 2′,3′-cGAMP (Assay 1)
Chain of ENPP-1 ECD (P22413 98-925): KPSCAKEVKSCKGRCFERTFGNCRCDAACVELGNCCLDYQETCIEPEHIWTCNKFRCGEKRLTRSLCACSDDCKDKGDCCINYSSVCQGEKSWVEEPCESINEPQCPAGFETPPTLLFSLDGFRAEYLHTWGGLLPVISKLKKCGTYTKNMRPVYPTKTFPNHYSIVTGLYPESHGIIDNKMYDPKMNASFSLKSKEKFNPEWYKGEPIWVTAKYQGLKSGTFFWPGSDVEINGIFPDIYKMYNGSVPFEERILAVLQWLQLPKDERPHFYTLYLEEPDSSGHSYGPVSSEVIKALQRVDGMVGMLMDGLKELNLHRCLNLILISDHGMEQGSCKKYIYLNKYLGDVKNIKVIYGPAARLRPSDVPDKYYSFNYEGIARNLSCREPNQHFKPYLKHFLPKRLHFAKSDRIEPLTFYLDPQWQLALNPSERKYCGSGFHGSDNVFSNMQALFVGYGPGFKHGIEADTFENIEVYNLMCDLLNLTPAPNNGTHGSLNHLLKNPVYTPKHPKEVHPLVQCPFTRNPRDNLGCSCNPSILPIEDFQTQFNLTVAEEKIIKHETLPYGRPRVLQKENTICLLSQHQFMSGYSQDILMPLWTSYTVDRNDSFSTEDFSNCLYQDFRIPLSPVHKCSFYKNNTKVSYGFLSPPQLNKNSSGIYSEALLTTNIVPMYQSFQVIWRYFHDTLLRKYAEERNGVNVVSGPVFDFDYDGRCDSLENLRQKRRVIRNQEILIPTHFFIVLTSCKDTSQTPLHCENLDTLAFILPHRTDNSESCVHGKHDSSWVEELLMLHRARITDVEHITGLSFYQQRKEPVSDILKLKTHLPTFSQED
Protocol: Test compounds were plated in a 3× dilution scheme in a 384 well plate.

[2] = pNP-AMP 0.25 mM, MDA-MB-231 cells, 37° C. 3 h, KI,app from IC50 via Cheng/Prusoff, read-out: Assay 2 KI, app
[3] = Assay 1 KI values (class), 2,3-cGAMP 24 μM, AMP-Glo luminescence, KI from IC50 via Cheng/Prusoff
[4] = pNP-AMP 0.25 mM, MDA-MB-231 cells, 37° C. 3 h, KI,app from IC50 via Cheng/Prusoff, read-out: Assay 2 KI,app values (class)
[5] = read-out: Assay 1 KI, 2,3-cGAMP 24 μM, AMP-Glo luminescence, KI from IC50 via Cheng/Prusoff
[6] = read-out: Assay 1 KI values (class), 2,3-cGAMP 24 μM, AMP-Glo luminescence, KI from IC50 via Cheng/Prusoff

Chain of ENPP1 on MDA-MB-231 cells (P22413 whole entry): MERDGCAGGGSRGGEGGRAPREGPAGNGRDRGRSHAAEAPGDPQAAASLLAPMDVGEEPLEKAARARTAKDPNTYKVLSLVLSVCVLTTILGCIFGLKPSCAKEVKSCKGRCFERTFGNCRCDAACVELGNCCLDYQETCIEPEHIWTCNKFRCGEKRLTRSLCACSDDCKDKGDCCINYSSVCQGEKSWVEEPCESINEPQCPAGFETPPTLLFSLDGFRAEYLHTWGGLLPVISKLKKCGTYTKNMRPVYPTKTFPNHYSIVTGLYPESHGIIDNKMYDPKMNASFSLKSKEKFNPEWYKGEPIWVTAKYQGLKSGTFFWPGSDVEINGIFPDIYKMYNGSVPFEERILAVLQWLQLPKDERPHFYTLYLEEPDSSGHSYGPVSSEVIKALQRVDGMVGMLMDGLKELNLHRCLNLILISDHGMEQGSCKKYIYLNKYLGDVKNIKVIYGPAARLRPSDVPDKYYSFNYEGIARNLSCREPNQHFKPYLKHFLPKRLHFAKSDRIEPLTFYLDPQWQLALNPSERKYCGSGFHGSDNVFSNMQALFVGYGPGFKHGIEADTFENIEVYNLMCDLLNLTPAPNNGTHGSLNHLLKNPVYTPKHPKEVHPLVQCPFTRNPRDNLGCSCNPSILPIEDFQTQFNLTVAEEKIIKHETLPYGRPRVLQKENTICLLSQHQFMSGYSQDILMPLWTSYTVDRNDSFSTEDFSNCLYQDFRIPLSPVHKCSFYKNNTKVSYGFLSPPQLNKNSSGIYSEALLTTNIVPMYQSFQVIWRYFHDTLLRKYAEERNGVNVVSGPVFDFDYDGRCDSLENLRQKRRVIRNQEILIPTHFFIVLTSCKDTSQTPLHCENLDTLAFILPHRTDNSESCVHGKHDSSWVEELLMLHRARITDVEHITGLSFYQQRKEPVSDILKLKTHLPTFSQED

With `Cc1nc2ncnn2c(N(C)C)c1Cc1ccc(S(=N)(=O)Cc2ccccc2)cc1` (centres unmarked) [Compound 55, benzyl(4-((7-(dimethylamino)-5-methyl-[1,2,4]triazolo[1,5-a]pyrimidin-6-yl)methyl)phenyl)(imino)-λ^6-sulfanone] the Ki [1, 2] was 1.65 nM and the Ki (ENPP-1 ECD; [3]) was < 3 nM.

With `Cc1c(Cc2ccc(S(C)(=N)=O)cc2)c(N(C)C)n2ccnc2c1C#N` (centres unmarked) [Compound 80, 5-(dimethylamino)-6-({4-[imino(methyl)oxo-λ^6-sulfanyl]phenyl}methyl)-7-methylimidazo[1,2-a]pyridine-8-carbonitrile] the Ki [1, 2] was 2.54 nM, the Ki [1, 4] was < 10 nM and the Ki (ENPP-1 ECD; [3]) was < 3 nM. It also gave a Ki (ENPP-1 ECD; [5]) of 0.0443 nM.

In the case of `Cc1nc2ncnn2c(N2CCCCC2)c1Cc1ccc([S@](C)(=N)=O)cc1` [Compound 16a], the Ki [1, 2] is reported as 11.9 nM, the Ki [1, 4] is reported as > 10 nM and the Ki (ENPP-1 ECD; [6]) is reported as < 3 nM. It also gave a Ki (ENPP-1 ECD; [5]) of 0.0627 nM.

With `Cc1cc2ncnn2c(N(C)C)c1Cc1ccc(S(C)(=N)=O)cc1` (centres unmarked) [Compound 28, (4-{[5-(dimethylamino)-7-methyl-[1,2,4]triazolo[1,5-a]pyridin-6-yl]methyl}phenyl)(imino)methyl-λ^6-sulfanone] the Ki [1, 2] was 1.06 nM, the Ki [1, 4] was < 10 nM and the Ki (ENPP-1 ECD; [3]) was < 3 nM. For the same compound, the Ki (ENPP-1 ECD; [5]) was < 0.027 nM.

For `Cc1cc2ncnn2c(N2CCCC2)c1Cc1ccc(S(C)(=N)=O)cc1` (centres unmarked) [Compound 75, imino(methyl)(4-{[7-methyl-5-(pyrrolidin-1-yl)-[1,2,4]triazolo[1,5-a]pyridin-6-yl]methyl}phenyl)-λ^6-sulfanone], the Ki [1, 2] was 36.7 nM, the Ki [1, 4] was > 10 nM and the Ki (ENPP-1 ECD; [3]) was < 3 nM.

For `CCc1nc2ncnn2c(N2CCCC2)c1Cc1ccc(S(C)(=N)=O)cc1` (centres unmarked) [Compound 50, (4-{[5-ethyl-7-(pyrrolidin-1-yl)-[1,2,4]triazolo[1,5-a]pyrimidin-6-yl]methyl}phenyl)(imino)methyl-λ^6-sulfanone], the Ki [1, 2] was 15.7 nM, the Ki [1, 4] was > 10 nM and the Ki (ENPP-1 ECD; [3]) was < 3 nM.

For `Cc1nc2ncnn2c(N(C)C)c1Cc1ccc(S(=N)(=O)CCN)cc1` (centres unmarked) [Compound 73, (2-aminoethyl)(4-{[7-(dimethylamino)-5-methyl-[1,2,4]triazolo[1,5-a]pyrimidin-6-yl]methyl}phenyl)imino-λ^6-sulfanone], the Ki [1, 2] was 7.7 nM, the Ki [1, 4] was < 10 nM and the Ki (ENPP-1 ECD; [3]) was < 3 nM.

In the case of `CN(C)c1c(Cc2ccc([S@@](C)(=N)=O)cc2)c(Cl)nc2ncnn12` [Compound 74a], the Ki [1, 2] is reported as 1.34 nM, the Ki [1, 4] is reported as < 10 nM and the Ki (ENPP-1 ECD; [6]) is reported as < 3 nM. The Ki (ENPP-1 ECD; [5]) was 0.0523 nM.

For `[2H]C([2H])([2H])N(c1c(Cc2ccc(S(C)(=N)=O)cc2)c(C)nc2ncnn12)C([2H])([2H])[2H]` (centres unmarked) [Compound 49, [4-[{7-[di(^2H3)methylamino]-5-methyl-[1,2,4]triazolo[1,5-a]pyrimidin-6-yl}methyl)phenyl](imino)methyl-λ^6-sulfanone], the Ki [1, 2] was 4.7 nM, the Ki [1, 4] was < 10 nM and the Ki (ENPP-1 ECD; [3]) was < 3 nM. For the same compound, the Ki (ENPP-1 ECD; [5]) was 0.0621 nM.

For `CN(C)c1c(Cc2ccc(S(C)(=N)=O)cc2)c(C2CC2)nc2ncnn12` (centres unmarked) [Compound 53, (4-{[5-cyclopropyl-7-(dimethylamino)-[1,2,4]triazolo[1,5-a]pyrimidin-6-yl]methyl}phenyl)(imino)methyl-λ^6-sulfanone], the Ki [1, 2] was 1.11 nM, the Ki [1, 4] was < 10 nM and the Ki (ENPP-1 ECD; [3]) was < 3 nM.

In the case of `Cc1nc2nccn2c(N(C)C)c1Cc1ccc([S@](C)(=N)=O)cc1` [Compound 29a], the Ki [1, 2] is reported as 3.15 nM, the Ki [1, 4] is reported as < 10 nM and the Ki (ENPP-1 ECD; [6]) is reported as < 3 nM. The Ki (ENPP-1 ECD; [5]) was 0.106 nM.

In the case of `CN(C)c1c(Cc2ccc(S(C)(=N)=O)cc2)c(Cl)nc2ncnn12` (centres unmarked) [Compound 74, (4-{[5-chloro-7-(dimethylamino)-[1,2,4]triazolo[1,5-a]pyrimidin-6-yl]methyl}phenyl)(imino)methyl-λ^6-sulfanone], the Ki [1, 2] is reported as 7.13 nM, the Ki [1, 4] is reported as < 10 nM and the Ki (ENPP-1 ECD; [3]) is reported as < 3 nM.

With `Cc1nc2ncnn2c(N(C)C)c1Cc1ccc(P(=O)(O)O)cc1` [Compound 5, (4-{[7-(dimethylamino)-5-methyl-[1,2,4]triazolo[1,5-a]pyrimidin-6-yl]methyl}phenyl)phosphonic acid] the Ki [1, 2] was 7.94 nM, the Ki [1, 4] was < 10 nM and the Ki (ENPP-1 ECD; [3]) was < 3 nM. For the same compound, the Ki (ENPP-1 ECD; [5]) was 0.851 nM.

`CC(=O)NCCS(=N)(=O)c1ccc(Cc2c(C)nc3ncnn3c2N(C)C)cc1` (centres unmarked) [Compound 64, N-{2-[(4-{[7-(dimethylamino)-5-methyl-[1,2,4]triazolo[1,5-a]pyrimidin-6-yl]methyl}phenyl)(imino)oxo-λ^6-sulfanyl]ethyl}acetamide] was tested, and the Ki [1, 2] was 4.41 nM, the Ki [1, 4] was < 10 nM and the Ki (ENPP-1 ECD; [3]) was < 3 nM. The Ki (ENPP-1 ECD; [5]) was 0.0667 nM.

With `Cc1nc2ncnn2c(N2CCCCC2)c1Cc1ccc(S(C)(=N)=O)cc1` (centres unmarked) [Compound 16, imino(methyl)(4-((5-methyl-7-(piperidin-1-yl)-[1,2,4]triazolo[1,5-a]pyrimidin-6-yl)methyl)phenyl)-λ^6-sulfanone] the Ki [1, 2] was 14.9 nM, the Ki [1, 4] was > 10 nM and the Ki (ENPP-1 ECD; [3]) was < 3 nM. It also gave a Ki (ENPP-1 ECD; [5]) of 0.0814 nM.

`Cc1c(Cc2ccc([S@@](C)(=N)=O)cc2)c(N(C)C)n2ncnc2c1C#N` (single isomer, unassigned) [Compound 85a] showed a Ki [1, 2] of 0.298 nM and a Ki (ENPP-1 ECD; [5]) of 0.00604 nM.

`CN(C)c1c(Cc2ccc(S(C)(=N)=O)cc2)c(C#N)nc2ncnn12` (centres unmarked) [Compound 79, 7-(dimethylamino)-6-({4-[imino(methyl)oxo-λ^6-sulfanyl]phenyl}methyl)-[1,2,4]triazolo[1,5-a]pyrimidine-5-carbonitrile] was tested, and the Ki [1, 2] was 74.4 nM, the Ki [1, 4] was > 10 nM and the Ki (ENPP-1 ECD; [3]) was < 3 nM. The Ki (ENPP-1 ECD; [5]) was 2.86 nM.

`Cc1c(Cc2ccc([S@@](C)(=N)=O)cc2)c(N(C)C)n2ccnc2c1C#N` [Compound 80a] was tested, and the Ki [1, 2] was 0.589 nM, the Ki [1, 4] was < 10 nM and the Ki (ENPP-1 ECD; [6]) was < 3 nM. For the same compound, the Ki (ENPP-1 ECD; [5]) was 0.016 nM.

With `Cc1nc2ncnn2c(N(C)C)c1Cc1ccc(S(=N)(=O)CCC(=O)O)cc1` (centres unmarked) [Compound 72, 3-[(4-{[7-(dimethylamino)-5-methyl-[1,2,4]triazolo[1,5-a]pyrimidin-6-yl]methyl}phenyl)(imino)oxo-λ^6-sulfanyl]propanoic acid] the Ki [1, 2] was 0.769 nM, the Ki [1, 4] was < 10 nM and the Ki (ENPP-1 ECD; [3]) was < 3 nM. For the same compound, the Ki (ENPP-1 ECD; [5]) was 0.0285 nM.

In the case of `Cc1nc2ncnn2c(N2CCCC2)c1Cc1ccc(S(N)(=O)=O)cc1` [Compound 9, 4-((5-methyl-7-(pyrrolidin-1-yl)-[1,2,4]triazolo[1,5-a]pyrimidin-6-yl)methyl)benzenesulfonamide], the Ki [1, 2] is reported as 32.4 nM, the Ki [1, 4] is reported as > 10 nM and the Ki (ENPP-1 ECD; [3]) is reported as < 3 nM. It also gave a Ki (ENPP-1 ECD; [5]) of 0.569 nM.

With `Cc1nc2ncnn2c(N2CCCC2)c1Cc1ccc(C(=O)NO)cc1` [Compound 82, N-hydroxy-4-{[5-methyl-7-(pyrrolidin-1-yl)-[1,2,4]triazolo[1,5-a]pyrimidin-6-yl]methyl}benzamide] the Ki [1, 2] was 69.9 nM, the Ki [1, 4] was > 10 nM and the Ki (ENPP-1 ECD; [3]) was < 3 nM. It also gave a Ki (ENPP-1 ECD; [5]) of 1.16 nM.

In the case of `Cc1nc2nccn2c(N(C)C)c1Cc1ccc(S(C)(=N)=O)cc1` (centres unmarked) [Compound 29, (4-{[5-(dimethylamino)-7-methylimidazo[1,2-a]pyrimidin-6-yl]methyl}phenyl)(imino)methyl-λ^6-sulfanone], the Ki [1, 2] is reported as 12.2 nM, the Ki [1, 4] is reported as > 10 nM and the Ki (ENPP-1 ECD; [3]) is reported as < 3 nM. For the same compound, the Ki (ENPP-1 ECD; [5]) was 0.252 nM.

In the case of `Cc1nc2ncnn2c(N(C)C)c1Cc1ccc(S(=N)(=O)CCO)cc1` (centres unmarked) [Compound 59, (4-{[7-(dimethylamino)-5-methyl-[1,2,4]triazolo[1,5-a]pyrimidin-6-yl]methyl}phenyl)(2-hydroxyethyl)imino-λ^6-sulfanone], the Ki [1, 2] is reported as 11.5 nM, the Ki [1, 4] is reported as > 10 nM and the Ki (ENPP-1 ECD; [3]) is reported as < 3 nM.

With `Cc1nc2ncnn2c(N(C)C)c1Cc1ccc(S(N)(=O)=O)cc1` [Compound 2, 4-((7-(dimethylamino)-5-methyl-[1,2,4]triazolo[1,5-a]pyrimidin-6-yl)methyl)benzenesulfonamide] the Ki [1, 2] was 14.4 nM, the Ki [1, 4] was > 10 nM and the Ki (ENPP-1 ECD; [3]) was < 3 nM. The Ki (ENPP-1 ECD; [5]) was 0.158 nM.

Work on `COc1nc2ncnn2c(N(C)C)c1Cc1ccc([S@@](C)(=N)=O)cc1` [Compound 88a] yielded a Ki [1, 2] of 0.222 nM and a Ki (ENPP-1 ECD; [5]) of 0.00586 nM.

For `Cc1nc2ncnn2c(N(C)C)c1Cc1cccc(N)c1`, the Ki [1] was 1400 nM and the Ki (ENPP-1 ECD) was 110 nM.

For `Cc1c(Cc2ccc(S(C)(=N)=O)cc2)c(N(C)C)nc2ncnn12` (centres unmarked) [Compound 86, (4-{[5-(dimethylamino)-7-methyl-[1,2,4]triazolo[1,5-a]pyrimidin-6-yl]methyl}phenyl)(imino)methyl-λ^6-sulfanone], the Ki [1, 2] was 8.29 nM.

For `Cc1nc2ncnn2c(N2CCC2)c1Cc1ccc(S(C)(=N)=O)cc1` (centres unmarked) [Compound 10, (4-((7-(azetidin-1-yl)-5-methyl-[1,2,4]triazolo[1,5-a]pyrimidin-6-yl)methyl)phenyl)(imino)(methyl)-λ^6-sulfanone], the Ki [1, 2] was 224 nM, the Ki [1, 4] was > 10 nM and the Ki (ENPP-1 ECD; [3]) was 3 to 300 nM. It also gave a Ki (ENPP-1 ECD; [5]) of 3.12 nM.
